Assay: Thermogravimetric analysis (TGA) / DSC of API vaporisation from crosslinked β-cyclodextrin micro sponge complex under nitrogen purge
Assay type: physicochemical
Experimental: Differential scanning calorimetry (“DSC”) and thermogravimetric analysis (“TGA”) was performed on a Netzsch STA 409PC/PG with Infrared (“IR”) analysis of the volatiles under a purge of nitrogen gas. TGA was completed at a temperature of 250° C.
The suitability of an API for vaping from the insoluble β-cyclodextrin micro sponge, or from other crosslinked polysaccharide micro sponges, can be tested using TGA. When TGA is applied, a sample of API bound with the insoluble β-cyclodextrin micro sponge is heated at a constant rate, simulating the heat used in a vaporisation device. The sample is kept under a constant flow of nitrogen gas, simulating the inhalation of the user, drawing volatile compounds away from the heated sample.
Vaporization kinetics refer to the rate of dissociation of the API as vapour from the micro sponge, as determined by TGA.

Structure (SMILES): C=C(C)[C@@H]1CCC(C)=C[C@H]1c1c(O)cc(CCCCC)cc1O [CBD, cannabidiol]
- onset temperature of vaporisation of CBD (TGA) (Example I, ramp rate 10° C. min^-1): 160 °C

Structure (SMILES): CCCCCc1cc(O)c(C/C=C(\C)CCC=C(C)C)c(O)c1 [CBG, cannabigerol]
- onset temperature of vaporisation of API (TGA) (Examples II, IV, V, VI, ramp rate 5° C. min^-1): 190 °C

Structure (SMILES): CCCCCc1cc(O)c(C/C=C(\C)CCC=C(C)C)c(O)c1C(=O)O [CBGA, cannabigerolic acid]
- onset temperature of vaporisation of CBG following decarboxylation from CBGA (TGA) (Example III, ramp rate 5° C. min^-1): 190 °C
